The values that follow come from ChEMBL document CHEMBL3576762, “Ribifolin, an orbitide from Jatropha ribifolia, and its potential antimalarial activity” (J Nat Prod, 2015).

Data set [1] has as its system Plasmodium falciparum. Description: Antimalarial activity against chloroquine-sensitive Plasmodium falciparum 3D7 infected in erythrocytes by Giemsa-stained blood smears under microscopy. The format is functional, organism-based.
Data set [2] deals with HEK-293T. The experiment in a line: Cytotoxicity against human HEK293T cells at 0.001 to 100 uM after 48 hrs by MTT assay. The format is cell-based.

Where a SMILES comes first, the peptide text is derived from it.

As a reminder, the IC50 is the concentration that inhibits the measured activity by half. Read a high IC50 as weaker potency. `CC[C@H](C)[C@@H]1NC(=O)[C@H](C)NC(=O)[C@H](CC(C)C)NC(=O)[C@H]([C@@H](C)CC)NC(=O)[C@@H]2CCCN2C(=O)[C@H]([C@@H](C)CC)NC(=O)CNC(=O)[C@H](CCSC)NC1=O` (cyclo(AIMGIPIL)): the IC50 in data set [1] came out at 9 µM. In other words, the single-digit micromolar range.
In data set [1], `C[C@@H](O)[C@@H]1NC(=O)CNC(=O)[C@H](Cc2ccccc2)NC(=O)[C@H](Cc2ccccc2)NC(=O)CNC(=O)[C@H](Cc2ccccc2)NC(=O)[C@H](Cc2ccccc2)NC1=O` (cyclo(FFGFFGT)) had an IC50 of 2 µM.
As for `CC[C@H](C)[C@@H]1NC(=O)[C@H]([C@@H](C)O)NC(=O)CNC(=O)[C@H](Cc2ccccc2)NC(=O)[C@H](C(C)C)NC(=O)CNC(=O)[C@H](CC(C)C)NC1=O` (cyclo(FGTILGV)), in data set [1], half-maximal inhibition (IC50) was put at 16 µM.
In data set [1], `CC[C@H](C)[C@@H]1NC(=O)CNC(=O)[C@H](CC(C)C)NC(=O)[C@H]([C@@H](C)CC)NC(=O)[C@H]([C@@H](C)CC)NC(=O)[C@H](CO)NC(=O)CNC(=O)[C@H](CC(C)C)NC1=O` (cyclo(GILGSIIL)) came in with an IC50 of 42 µM. In addition, in data set [2], the Activity entry was “Non-toxic”.
For `CC[C@H](C)[C@@H]1NC(=O)CNC(=O)[C@H](CC(C)C)NC(=O)[C@H](CC(C)C)NC(=O)[C@H]([C@@H](C)CC)NC(=O)[C@@H]2CCCN2C(=O)[C@H](CO)NC(=O)CNC(=O)[C@H](CC(C)C)NC1=O` (cyclo(GILGSPILL)), in data set [1], the IC50 was determined as 10000 µM.
Molecule H-ILGSIILG-OH registered a half-inhibitory concentration (IC50) in data set [1] of 519 µM. Moreover, in data set [2], the Activity entry is “Non-toxic”.
